Assay results: ChEMBL document CHEMBL1138490, “Gamma-aminobutyric acid amides of nortriptyline and fluoxetine display improved pain suppressing activity” (2009)
Activity calls are given as the source filed them. The rule behind the calls is not given here.

Columns and labels:
Mus musculus [1] = experiment: Antinociceptive activity against formalin-induced pain in BALB/c mouse assessed paw licking, biting or shaking at 5 mg/kg, po equimolar dose of nortriptyline administered 2 hrs before formalin challenge measured after 0 to 5 mins relative to control; format: functional, organism-based; design: dose 5 mg/kg
Mus musculus [2] = experiment: Antinociceptive activity in BALB/c mouse assessed as […] at 0.25 mg/kg, po after 240 mins by hot plate method; format: functional, organism-based; design: dose 0.25 mg/kg
Mus musculus [3] = experiment: Antinociceptive activity in BALB/c mouse assessed as […] at 4.5 mg/kg, po equimolar dose of nortriptyline after 240 mins by hot plate method; format: functional, organism-based; design: dose 4.5 mg/kg
Mus musculus [4] = experiment: Antinociceptive activity against formalin-induced pain in BALB/c mouse assessed paw licking, biting or shaking at 5 mg/kg, po administered 2 hrs before formalin challenge measured after 25 to 35 mins relative to control; format: functional, organism-based; design: dose 5 mg/kg
Mus musculus [5] = experiment: Antinociceptive activity against formalin-induced pain in BALB/c mouse assessed paw licking, biting or shaking at 0.5 mg/kg, po administered 2 hrs before formalin challenge measured after 25 to 35 mins relative to control; format: functional, organism-based; design: dose 0.5 mg/kg
Mus musculus [6] = experiment: Antinociceptive activity against formalin-induced pain in BALB/c mouse assessed paw licking, biting or shaking at 5 mg/kg, po equimolar dose of nortriptyline administered 2 hrs before formalin challenge measured after 25 to 35 mins relative to control; format: functional, organism-based; design: dose 5 mg/kg
Mus musculus [7] = experiment: Antinociceptive activity against formalin-induced pain in BALB/c mouse assessed paw licking, biting or shaking at 0.5 mg/kg, po equimolar dose of nortriptyline administered 2 hrs before formalin challenge measured after 0 to 5 mins relative to control; format: functional, organism-based; design: dose 0.5 mg/kg
Rattus norvegicus = experiment: Antiinflammatory activity against gamma carrageenan-induced paw edema in Wistar rat assessed as paw volume at 5 mg/kg, po equimolar dose of nortriptyline administered 2 hrs before carrageenan challenge relative to control; format: functional, organism-based; design: dose 5 mg/kg
Mus musculus [8] = experiment: Antinociceptive activity against formalin-induced pain in BALB/c mouse assessed paw licking, biting or shaking at 0.5 mg/kg, po administered 2 hrs before formalin challenge measured after 0 to 5 mins relative to control; format: functional, organism-based; design: dose 0.5 mg/kg
Mus musculus [9] = experiment: Antinociceptive activity in BALB/c mouse assessed as […] at 0.5 mg/kg, po equimolar dose of nortriptyline after 240 mins by hot plate method; format: functional, organism-based; design: dose 0.5 mg/kg
Mus musculus [10] = experiment: Antiinflammatory activity against formalin-induced BALB/c mouse skin assessed as reduction in TNFalpha level at to 0.5 mg/kg, po; format: functional, organism-based; design: dose 0.5 mg/kg
Mus musculus [11] = experiment: Antinociceptive activity against formalin-induced pain in BALB/c mouse assessed paw licking, biting or shaking at 5 mg/kg, po administered 2 hrs before formalin challenge measured after 0 to 5 mins relative to control; format: functional, organism-based; design: dose 5 mg/kg
Mus musculus [12] = experiment: Antinociceptive activity against formalin-induced pain in BALB/c mouse assessed paw licking, biting or shaking at 0.5 mg/kg, po equimolar dose of nortriptyline administered 2 hrs before formalin challenge measured after 25 to 35 mins relative to control; format: functional, organism-based; design: dose 0.5 mg/kg
Mus musculus [13] = experiment: Antinociceptive activity in BALB/c mouse assessed as […] at 4.5 mg/kg, po after 240 mins by hot plate method; format: functional, organism-based; design: dose 4.5 mg/kg
Mus musculus [14] = experiment: Antinociceptive activity in BALB/c mouse assessed as […] at 0.25 mg/kg, po equimolar dose of nortriptyline after 240 mins by hot plate method; format: functional, organism-based; design: dose 0.25 mg/kg
Mus musculus [15] = experiment: Anxiolytic activity in BALB/c mouse assessed as distance moved at equimolar oral dose relative to 5 mg/kg fluoxetine after 90 mins by open-field test (RVb= 8485+/-610 cm); format: functional
Mus musculus [16] = experiment: Antinociceptive activity in BALB/c mouse assessed as […] at 10 mg/kg, po equimolar dose of nortriptyline after 240 mins by hot plate method; format: functional, organism-based; design: dose 10 mg/kg
Mus musculus [17] = experiment: Antinociceptive activity against formalin-induced neurogenic pain in BALB/c mouse assessed paw licking, biting or shaking during at 10 mg/kg, po equimolar oral dose fluoxetine administered 2 hrs before formalin challenge measured relative to control; format: functional, organism-based; design: dose 10 mg/kg
Mus musculus [18] = experiment: Antinociceptive activity in BALB/c mouse assessed as paw withdrawal latency at 0.4 mg/kg, po equimolar dose of nortriptyline after 2 to 4 hrs by hot plate method; format: functional, organism-based; design: dose 0.4 mg/kg
Mus musculus [19] = experiment: Anxiolytic activity in BALB/c mouse assessed as distance moved at equimolar oral dose relative to 20 mg/kg fluoxetine after 90 mins by open-field test (RVb= 8485+/-610 cm); format: functional
Mus musculus [20] = experiment: Anxiolytic activity in BALB/c mouse assessed as velocity at equimolar oral dose relative to 10 mg/kg fluoxetine after 90 mins by open-field test (RVb= 7.07+/-0.51 cm/s); format: functional
Mus musculus [21] = experiment: Antinociceptive activity in BALB/c mouse assessed as paw withdrawal latency at 0.4 mg/kg, po after 2 to 4 hrs by hot plate method; format: functional, organism-based; design: dose 0.4 mg/kg
Mus musculus [22] = experiment: Antinociceptive activity in BALB/c mouse assessed as increase in paw withdrawal latency time at 10 mg/kg, po daily measured after 3 to 5 hrs on day 1 on day 1 to 11; format: functional, organism-based; design: dose 10 mg/kg
Mus musculus [23] = experiment: Antinociceptive activity against formalin-induced neurogenic pain in BALB/c mouse assessed paw licking, biting or shaking at to 30 mg/kg, po equimolar dose of fluoxetine administered 2 hrs before formalin challenge measured relative to control; format: functional, organism-based; design: dose 30 mg/kg
Mus musculus [24] = experiment: Anxiolytic activity in BALB/c mouse assessed as velocity at equimolar oral dose relative to 20 mg/kg fluoxetine after 90 mins by open-field test (RVb= 7.07+/-0.51 cm/s); format: functional
Mus musculus [25] = experiment: Anxiolytic activity in BALB/c mouse assessed as distance moved at equimolar oral dose relative to 10 mg/kg fluoxetine after 90 mins by open-field test (RVb= 8485+/-610 cm); format: functional
Mus musculus [26] = experiment: Antinociceptive activity against formalin-induced neurogenic pain in BALB/c mouse assessed paw licking, biting or shaking at 30 mg/kg, po administered 2 hrs before formalin challenge measured relative to control; format: functional, organism-based; design: dose 30 mg/kg
Mus musculus [27] = experiment: Anxiolytic activity in BALB/c mouse assessed as immobility at equimolar oral dose relative to 5 mg/kg fluoxetine after 90 mins by open-field test (RVb= 458.4+/-41 s); format: functional
Mus musculus [28] = experiment: Anxiolytic activity in BALB/c mouse assessed as immobility at equimolar oral dose relative to 20 mg/kg fluoxetine after 90 mins by open-field test (RVb= 458.4+/-41 s); format: functional
Mus musculus [29] = experiment: Antinociceptive activity in BALB/c mouse assessed as […] at 20 to 40 mg/kg, po equimolar dose of nortriptyline after 240 mins by hot plate method; format: functional, organism-based
Mus musculus [30] = experiment: Anxiolytic activity in BALB/c mouse assessed as velocity at equimolar oral dose relative to 5 mg/kg fluoxetine after 90 mins by open-field test (RVb= 7.07+/-0.51 cm/s); format: functional
Mus musculus [31] = experiment: Antinociceptive activity against formalin-induced neurogenic pain in BALB/c mouse assessed paw licking, biting or shaking during at 10 mg/kg, po administered 2 hrs before formalin challenge measured relative to control; format: functional, organism-based; design: dose 10 mg/kg
Mus musculus [32] = experiment: Antinociceptive activity in BALB/c mouse assessed as increase in paw withdrawal latency time at 10 mg/kg, po equimolar dose of fluoxetine daily measured after 3 to 5 hrs on day 1 to 11; format: functional, organism-based; design: dose 10 mg/kg
Mus musculus [33] = experiment: Anxiolytic activity in BALB/c mouse assessed as immobility at equimolar oral dose relative to 10 mg/kg fluoxetine after 90 mins by open-field test (RVb= 458.4+/-41 s); format: functional

CNCCC=C1c2ccccc2CCc2ccccc21
Activity (Mus musculus [1]): Active
Activity (Mus musculus [2]): Active
Activity (Mus musculus [3]): Active
Activity (Mus musculus [4]): Active
Activity (Mus musculus [5]): Active
Activity (Mus musculus [6]): Active
Activity (Mus musculus [7]): Active
Activity (Rattus norvegicus): Active
Activity (Mus musculus [8]): Active
Activity (Mus musculus [9]): Active
Activity (Mus musculus [10]): Active
Activity (Mus musculus [11]): Active
Activity (Mus musculus [12]): Active
Activity (Mus musculus [13]): Active
Activity (Mus musculus [14]): Active

CN(CCC(Oc1ccc(C(F)(F)F)cc1)c1ccccc1)C(=O)CCCN.Cl (centres undefined)
Activity (Mus musculus [15]): 7767 cm
Activity (Mus musculus [16]): Active
Activity (Mus musculus [17]): Active
Activity (Mus musculus [18]): Active
Activity (Mus musculus [19]): 6462 cm
Activity (Mus musculus [20]): 6.67 cm/s
Activity (Mus musculus [21]): Active
Activity (Mus musculus [22]): Active
Activity (Mus musculus [23]): Active
Activity (Mus musculus [24]): 5.39 cm/s
Activity (Mus musculus [25]): 8003 cm
Activity (Mus musculus [26]): Active
Activity (Mus musculus [27]): 501.5 s
Activity (Mus musculus [28]): 639.9 s
Activity (Mus musculus [29]): Active
Activity (Mus musculus [30]): 6.47 cm/s
Activity (Mus musculus [31]): Active
Activity (Mus musculus [32]): Active
Activity (Mus musculus [33]): 536.3 s
